Data taken from PubChem BioAssay AID1845209 (Molecular Pharmacology Branch, DTP, NCI, 2023).

System: NCI-H211 tumor spheroids, viability percent test/control
Assay: Anticancer human tumor NCI-H211 cell line growth inhibition;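 note: spheroids exposed to agents for seven days before readout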
Details: spheroids with HUVEC and MSC; for IC50: curve of first compound; for viability, T/C: stronger effect = lower value
In short: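 Complex spheroids of malignant cells with endothelial cells and mesenchymal stem cells; agents alone or combined, from near clinical Cmax (or 10 microM if unknown) down in half-log steps, 0.25% DMSO final.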

## Cc1sc2c(c1C)C(c1ccc(Cl)cc1)=NC(CC(=O)Nc1ccc(O)cc1)c1nnc(C)n1-2 (stereo not given) + Cn1nnc2c(C(N)=O)ncn2c1=O
Second compound 1 µM
  IC50: < 9.49 nM
Second compound 3.16 µM
  IC50: < 9.49 nM
Second compound 10 µM
  IC50: < 9.49 nM
Second compound 31.6 µM
  IC50: < 9.49 nM
Second compound 100 µM
  IC50: < 9.49 nM
Second compound 1 µM, first compound 0.00949 µM
  viability, T/C: 25.5%
Second compound 1 µM, first compound 0.03 µM
  viability, T/C: 2.24%
Second compound 1 µM, first compound 0.0949 µM
  viability, T/C: 0.88%
Second compound 1 µM, first compound 0.3 µM
  viability, T/C: 0.67%
Second compound 1 µM, first compound 0.949 µM
  viability, T/C: 0.78%
Second compound 1 µM, first compound 3 µM
  viability, T/C: 0.72%
Second compound 3.16 µM, first compound 0.00949 µM
  viability, T/C: 36.7%
Second compound 3.16 µM, first compound 0.03 µM
  viability, T/C: 3.37%
Second compound 3.16 µM, first compound 0.0949 µM
  viability, T/C: 0.97%
Second compound 3.16 µM, first compound 0.3 µM
  viability, T/C: 0.76%
Second compound 3.16 µM, first compound 0.949 µM
  viability, T/C: 0.66%
Second compound 3.16 µM, first compound 3 µM
  viability, T/C: 0.82%
Second compound 10 µM, first compound 0.00949 µM
  viability, T/C: 31.8%
Second compound 10 µM, first compound 0.03 µM
  viability, T/C: 1.97%
Second compound 10 µM, first compound 0.0949 µM
  viability, T/C: 1.15%
Second compound 10 µM, first compound 0.3 µM
  viability, T/C: 0.79%
Second compound 10 µM, first compound 0.949 µM
  viability, T/C: 0.76%
Second compound 10 µM, first compound 3 µM
  viability, T/C: 0.74%
Second compound 31.6 µM, first compound 0.00949 µM
  viability, T/C: 22%
Second compound 31.6 µM, first compound 0.03 µM
  viability, T/C: 1.97%
Second compound 31.6 µM, first compound 0.0949 µM
  viability, T/C: 1.02%
Second compound 31.6 µM, first compound 0.3 µM
  viability, T/C: 0.79%
Second compound 31.6 µM, first compound 0.949 µM
  viability, T/C: 0.71%
Second compound 31.6 µM, first compound 3 µM
  viability, T/C: 0.82%
Second compound 100 µM, first compound 0.00949 µM
  viability, T/C: 6.77%
Second compound 100 µM, first compound 0.03 µM
  viability, T/C: 1.61%
Second compound 100 µM, first compound 0.0949 µM
  viability, T/C: 1.08%
Second compound 100 µM, first compound 0.3 µM
  viability, T/C: 1.09%
Second compound 100 µM, first compound 0.949 µM
  viability, T/C: 0.86%
Second compound 100 µM, first compound 3 µM
  viability, T/C: 1.03%
